Results from patent publication US20250170156A1, “TOLL-LIKE RECEPTOR LIGANDS” (INIMMUNE CORPORATION, priority 2018, published 2025).
Counter-ions that a name gives are not always drawn.

How the values were obtained:
primary hPBMCs [1] = test: Induction of RANTES from primary hPBMCs (ELISA)
hTLR4 = biological target: T1, hTLR4 (Homo sapiens, UniProt O00206+Q9Y6Y9); test: HEK hTLR4 NF-κB driven SEAP reporter assay (hTLR4 activation); format: cell-based; settings: Table 1b, 18 hours
T1 construct: expressed in transfected cells; host or cells: HEK cells expressing hTLR4 and an NF-κB driven SEAP reporter
Description: hTLR4 activation. HEK hTLR4-expressing cells were treated with 100 μM concentration of test compound followed by a 5-fold dilution series. HEK hTLR4-expressing cells also contained an NF-κB driven SEAP reporter and were stimulated with the indicated concentration (FIG. 1A-1C) of the test compound for 18 hours followed by assessment of the cellular supernatant for SEAP by a Quantikine SEAP assay (InvivoGen). The SEAP assay was used to look at secretion of the NF-κB driven alkaline-phosphatase reporter gene in response to TLR4 activation by the compounds and results are interpreted both in terms of potency of the compounds to induce SEAP activation (i.e. potency where a lower EC50 indicates higher potency) and efficacy for receptor activation (i.e. maximal SEAP induction).

primary hPBMCs [2] = test: Induction of MIP-1β from primary hPBMCs (ELISA)
[3] = test system: influenza virus antigen A/Victoria/210/2009-H3N2; test: Vaccine adjuvant study, murine influenza virus vaccination model; format: in vivo, BALB/c mice; settings: intramuscular, 0.1, 0.01 or 0.001 μg with 0.2 μg antigen, 14 days after single immunization, 2% glycine
Description: Vaccine adjuvant study. Compounds 2, 4, 5 and 7 were evaluated as vaccine adjuvant in a murine influenza virus vaccination model. 7-9 week old BALB/c mice (10 mice per group) were injected intramuscularly in a hind limb with the influenza virus antigen A/Victoria/210/2009-H3N2 (0.2 μg/mouse) with or without 0.1, 0.01 or 0.001 μg of compound 2, 4, 5 or 7 (formulated in 2% glycine). Fourteen days after a single immunization, animals were bled via the submandibular vein and serum was collected to assay for A/Victoria specific antibodies by ELISA assay (FIG. 7).

[4] = Homo sapiens, read-out: hPBMCs EC50 RANTES, Table 4c, one donor
[5] = Homo sapiens, 96 h, read-out: hPBMCs EC50 MIP-1β, Table 4d, one donor

T1 sequence (O00206 24-839): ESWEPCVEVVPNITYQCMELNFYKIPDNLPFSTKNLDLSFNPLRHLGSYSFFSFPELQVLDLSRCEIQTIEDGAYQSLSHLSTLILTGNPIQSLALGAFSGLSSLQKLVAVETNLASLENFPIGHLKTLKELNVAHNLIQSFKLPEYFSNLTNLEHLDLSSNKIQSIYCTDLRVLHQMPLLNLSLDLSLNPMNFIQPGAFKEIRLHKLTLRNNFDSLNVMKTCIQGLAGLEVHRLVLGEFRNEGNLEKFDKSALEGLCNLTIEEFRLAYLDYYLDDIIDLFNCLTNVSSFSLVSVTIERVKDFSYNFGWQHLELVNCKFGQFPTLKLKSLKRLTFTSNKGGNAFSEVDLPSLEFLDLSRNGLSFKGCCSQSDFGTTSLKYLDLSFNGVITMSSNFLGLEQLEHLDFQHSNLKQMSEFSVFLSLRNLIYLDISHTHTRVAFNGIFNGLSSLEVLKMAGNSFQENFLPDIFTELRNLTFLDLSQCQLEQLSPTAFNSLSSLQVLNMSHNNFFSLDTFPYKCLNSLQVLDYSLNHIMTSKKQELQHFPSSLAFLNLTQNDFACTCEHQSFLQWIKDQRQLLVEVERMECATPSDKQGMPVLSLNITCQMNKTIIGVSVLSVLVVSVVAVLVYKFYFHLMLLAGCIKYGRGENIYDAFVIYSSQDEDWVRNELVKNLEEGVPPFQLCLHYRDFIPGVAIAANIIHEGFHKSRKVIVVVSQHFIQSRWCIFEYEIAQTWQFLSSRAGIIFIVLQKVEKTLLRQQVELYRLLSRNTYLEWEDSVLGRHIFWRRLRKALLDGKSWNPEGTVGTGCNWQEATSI
T1 sequence (Q9Y6Y9 17-160 limits assumed): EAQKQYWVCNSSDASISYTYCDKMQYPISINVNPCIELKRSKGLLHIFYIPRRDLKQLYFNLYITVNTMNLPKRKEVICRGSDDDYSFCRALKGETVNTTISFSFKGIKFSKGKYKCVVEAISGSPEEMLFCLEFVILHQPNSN

Compound `CCCCCCCCCCC[C@H](CC(=O)NCCO[C@@H]1OC(CO)[C@@H](OCP(=O)(O)O)[C@H](NC(=O)C[C@@H](CCCCCCCCCCC)OC(=O)CCCCCCCCC)C1NC(=O)C[C@@H](CCCCCCCCCCC)OC(=O)CCCCCCCCC)OC(=O)CCCCCCCCC` (stereo partly drawn) [Compound 6] has an EC50 (primary hPBMCs [1]; Homo sapiens, read-out: hPBMCs EC50 RANTES, Table 4b, Average of Donors 22, 5) of 174 pM, an EC50 (primary hPBMCs [1]; Homo sapiens, read-out: hPBMCs EC50 RANTES, Table 4b, Donor 5) of 238 pM and an EC50 (primary hPBMCs [1]; Homo sapiens, read-out: hPBMCs EC50 RANTES, Table 4b, Donor 22) of 109 pM. For the same compound, the EC50 (hTLR4) was 10200 pM, the EC50 (primary hPBMCs [2]; Homo sapiens, read-out: hPBMCs EC50 MIP-1β, Table 4b, Average of Donors 22, 5) was 79.1 pM and the EC50 (primary hPBMCs [2]; Homo sapiens, read-out: hPBMCs EC50 MIP-1β, Table 4b, Donor 5) was 36 pM. For the same compound, the EC50 (primary hPBMCs [2]; Homo sapiens, read-out: hPBMCs EC50 MIP-1β, Table 4b, Donor 22) was 122 pM.

In the case of `CCCCCCCCCCC[C@H](CC(=O)NCCO[C@@H]1OC(CO)[C@@H](OP(=O)(O)O)C(NC(=O)C[C@@H](CCCCCCCCCCC)OC(=O)CCCCCCCc2ccccc2)C1NC(=O)C[C@@H](CCCCCCCCCCC)OC(=O)CCCCCCCc1ccccc1)OC(=O)CCCCCCCc1ccccc1` (stereo partly drawn) [Compound 8, 2-[(R)-3-(8-phenyl)octanoyloxytetradecanoylamino]ethyl 2,3-di-[(R)-3-(8-phenyl)octanoyloxytetradecanoylamino]-2,3-dideoxy-4-O-phosphono-β-D-allopyranoside triethylammonium Salt], the EC50 (primary hPBMCs [1]; [4]) is reported as 39.1 pM, the EC50 (hTLR4) is reported as 4990 pM and the EC50 (primary hPBMCs [2]; [5]) is reported as 41.8 pM.

With `CCCCCCCCCCC[C@H](CC(=O)NCCO[C@@H]1OC(CO)[C@@H](OP(=O)(O)O)C(NC(=O)C[C@@H](CCCCCCCCCCC)OC(=O)CCCCCCCc2ccccc2)C1NC(=O)C[C@@H](CCCCCCCCCCC)OC(=O)CCCCCCCCC)OC(=O)CCCCCCCCC` (stereo partly drawn) [Compound 9, 2-[(R)-3-decanoyloxytetradecanoylamino]ethyl, 2-[(R)-3-decanoyloxytetradecanoylamino]-3-[(R)-3-(8-phenyl)octanoyloxytetradecanoylamino]-2,3-dideoxy-4-O-phosphono-β-D-allopyranoside triethylammonium salt] the EC50 (primary hPBMCs [1]; [4]) was 143 pM, the EC50 (hTLR4) was 15700 pM and the EC50 (primary hPBMCs [2]; [5]) was 182 pM.

With “N—[(R)-3-Decyloxytetradecanoyl]-O-[2,3-di-[(R)-3-decyloxytetradecanoylamino]-2,3-dideoxy-4-O-methylphosphono-β-D-allopyranosyl]-L-serine triethylammonium salt [Compound 7]” the “adjuvant effect on flu-specific IgG2a antibody titers compared to antigen alone” value [3] was “dose dependent adjuvant effect”, the EC50 (primary hPBMCs [1]; read-out: hPBMCs EC50 RANTES, Table 4b, Average of Donors 22, 5) was 6 pM and the EC50 (primary hPBMCs [1]; read-out: hPBMCs EC50 RANTES, Table 4b, Donor 5) was 4.1 pM. The EC50 (primary hPBMCs [1]; read-out: hPBMCs EC50 RANTES, Table 4b, Donor 22) was 8 pM, the EC50 (hTLR4) was 780 pM and the EC50 (primary hPBMCs [2]; read-out: hPBMCs EC50 MIP-1β, Table 4b, Average of Donors 22, 5) was 8.3 pM. For the same compound, the EC50 (primary hPBMCs [2]; read-out: hPBMCs EC50 MIP-1β, Table 4b, Donor 5) was 3.3 pM and the EC50 (primary hPBMCs [2]; read-out: hPBMCs EC50 MIP-1β, Table 4b, Donor 22) was 13.3 pM.
